“Also recorded” adds a separate entry of the source. Like-named read-outs stand apart in the source and are kept apart here.
How the values were obtained:
CYP3A4 [1] = molecular target: T1, CYP3A4 (Homo sapiens, UniProt P08684); conditions: 18 patients with solid tumors; cited from earlier work
CYP3A4 [2] = molecular target: T1, CYP3A4; conditions: 18 patients with solid tumors, before/after design; cited from earlier work
[3] = assay type: in vivo, human; conditions: for Vd/F: Vz/F
CYP3A4 [4] = molecular target: T1, CYP3A4; assay type: in vivo
[5] = D −3, patients of comparison D14 vs D −3
[6] = human, plasma, oral, 4 mg, Plasma concentration, mean (standard deviation), D −3 midazolam only
[7] = human, plasma, oral, Plasma concentration, mean (standard deviation), D1 1 dose of lenvatinib and midazolam
[8] = human, plasma, oral, Plasma concentration, mean (standard deviation), D14 multiple doses of lenvatinib and 1 dose of midazolam

T1 sequence (P08684 whole entry): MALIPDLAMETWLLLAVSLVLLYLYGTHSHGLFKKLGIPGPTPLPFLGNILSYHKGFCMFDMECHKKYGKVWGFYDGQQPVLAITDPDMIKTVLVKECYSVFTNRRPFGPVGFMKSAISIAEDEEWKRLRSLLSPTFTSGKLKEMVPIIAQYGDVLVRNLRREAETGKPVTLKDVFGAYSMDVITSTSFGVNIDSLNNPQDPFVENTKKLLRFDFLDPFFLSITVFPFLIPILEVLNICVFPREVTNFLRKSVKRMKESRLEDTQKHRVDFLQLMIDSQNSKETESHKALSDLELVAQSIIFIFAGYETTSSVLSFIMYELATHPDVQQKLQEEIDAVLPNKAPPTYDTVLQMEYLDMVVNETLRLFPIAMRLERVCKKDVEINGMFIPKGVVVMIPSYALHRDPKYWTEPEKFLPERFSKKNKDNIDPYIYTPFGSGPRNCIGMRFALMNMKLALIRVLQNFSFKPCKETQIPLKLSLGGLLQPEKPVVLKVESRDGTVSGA

## COC[C@H](NC(=O)c1cnc(C)s1)C(=O)N[C@@H](COC)C(=O)N[C@@H](Cc1ccccc1)C(=O)[C@@]1(C)CO1 [Oprozomib, oprozomib]
CYP3A4 [1]
  CYP3A4 inhibition in patients (midazolam): clinically relevant inhibition was not seen

## CC(C)C[C@H](NC(=O)[C@H](CCc1ccccc1)NC(=O)CN1CCOCC1)C(=O)N[C@@H](Cc1ccccc1)C(=O)N[C@@H](CC(C)C)C(=O)[C@@]1(C)CO1 [carfilzomib]
CYP3A4 [2]
  Effect on the pharmacokinetics of midazolam: No clinically significant effects

## Cc1ncc2n1-c1ccc(Cl)cc1C(c1ccccc1F)=NC2 [midazolam]
[3]; D14, comparison D14 vs D −3
  Cmax geometric mean, lenvatinib + midazolam (test): 24.76 ng/mL
[3]; D −3, patients of comparison D1 vs D −3
  Cmax geometric mean, midazolam (reference): 24.73 ng/mL
[3]; [5]
  AUC0–24 geometric mean, midazolam (reference): 88.30 ng·h/mL
  Cmax geometric mean, midazolam (reference): 24.10 ng/mL
[3]; Day −3, midazolam alone, mean (SD)
  Cmax: 26.5 (10.7) ng/mL
[3]; [6]
  concentration at 1 h: 19 ng/mL
  concentration at 2 h: 13.1 ng/mL
  concentration at 3 h: 8.78 ng/mL
  concentration at 4 h: 6.12 ng/mL
  concentration at 6 h: 4.19 ng/mL
  concentration at 8 h: 3.24 ng/mL
  concentration at 10 h: 2.51 ng/mL
  concentration at 24 h: 0.53 ng/mL
[3]; human, plasma, oral, 4 mg, Day −3, midazolam alone, mean (SD)
  Vd/F: 382 L
[3]; human, plasma, oral, 4 mg, t1/2, Day −3, midazolam alone, mean (SD)
  half-life: 5.87 h
[3]; human, plasma, oral, AUC0–24, Day 14, midazolam with lenvatinib at steady state, mean (SD), n = 19
  AUC(0-t): 117 ng·h/mL
[3]; human, plasma, oral, Cmax, Day 1, with single dose of lenvatinib, mean (SD)
  Cmax: 24.8 ng/mL
[3]; human, plasma, oral, Cmax, Day 14, with lenvatinib at steady state, mean (SD)
  Cmax: 28.3 ng/mL
[3]; human, plasma, oral, Plasma concentration, mean (standard deviation), 0.5 h, D14 multiple doses of lenvatinib and 1 dose of midazolam
  concentration at 0.5 h: 23.7 ng/mL
[3]; [7]
  concentration at 1 h: 16.5 ng/mL
  concentration at 2 h: 11.3 ng/mL
  concentration at 3 h: 7.89 ng/mL
  concentration at 4 h: 5.67 ng/mL
  concentration at 6 h: 4.08 ng/mL
  concentration at 8 h: 2.96 ng/mL
  concentration at 10 h: 2.39 ng/mL
  concentration at 24 h: 0.628 ng/mL
[3]; [8]
  concentration at 1 h: 23.1 ng/mL
  concentration at 2 h: 13.9 ng/mL
  concentration at 3 h: 9.93 ng/mL
  concentration at 4 h: 7.58 ng/mL
  concentration at 6 h: 5.21 ng/mL
  concentration at 8 h: 4.05 ng/mL
  concentration at 10 h: 3.47 ng/mL
  concentration at 24 h: 1.25 ng/mL
[3]; human, plasma, oral, Plasma concentration, mean (standard deviation), 1.5 h, D14 multiple doses of lenvatinib and 1 dose of midazolam
  concentration at 1.5 h: 17.8 ng/mL
[3]; human, plasma, oral, Day 1, with single dose of lenvatinib, mean (SD)
  Vd/F: 481 L
[3]; human, plasma, oral, Day 14, with lenvatinib at steady state, mean (SD)
  Vd/F: 544 L
[3]; human, plasma, oral, t1/2, Day 1, with single dose of lenvatinib, mean (SD)
  half-life: 6.48 h
[3]; human, plasma, oral, t1/2, Day 14, with lenvatinib at steady state, mean (SD)
  half-life: 6.76 h
[3]; human, plasma, oral, tmax, Day 1, with single dose of lenvatinib, median (minimum, maximum)
  tmax: 0.63 h
CYP3A4 [4]; D1 and D14 vs D −3
  Change in t1/2 when administered with lenvatinib: little change; also recorded: no statistically significant change
CYP3A4 [4]; D1 vs D −3
  Difference in median tmax: 0.00 h
CYP3A4 [4]; D14 vs D −3
  Difference in median tmax: 0.00 h
CYP3A4 [4]; D −3, D1, D14
  Change in CL/F and Vz/F over time: no statistically significant change
